Consider 10 molecules from US5773438A, “Synthetic matrix metalloprotease inhibitors and use thereof” (Glycomed Incorporated, priority 1994, dated 1998).

“Also recorded” adds a separate entry of the source. Some results are limits rather than exact numbers.

Assay [1] deals with T1, human skin fibroblast collagenase (Homo sapiens, UniProt P03956).
T1 construct: endogenous in cells; host or cells: human skin fibroblasts
T1 sequence (P03956 100-469): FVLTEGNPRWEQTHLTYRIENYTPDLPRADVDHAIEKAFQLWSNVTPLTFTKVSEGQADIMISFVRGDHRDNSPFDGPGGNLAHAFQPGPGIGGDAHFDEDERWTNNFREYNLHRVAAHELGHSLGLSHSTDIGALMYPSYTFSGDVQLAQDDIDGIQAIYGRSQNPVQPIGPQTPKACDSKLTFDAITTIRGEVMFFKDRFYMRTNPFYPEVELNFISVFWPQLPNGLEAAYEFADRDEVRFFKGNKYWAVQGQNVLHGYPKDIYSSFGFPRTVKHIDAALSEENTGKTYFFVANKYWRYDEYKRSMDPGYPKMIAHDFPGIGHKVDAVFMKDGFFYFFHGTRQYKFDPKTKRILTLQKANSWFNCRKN
In words: inhibition of collagenase, synthetic thiol ester substrate, Ki (Table 1). The class given is biochemical.
Procedure: Specifically, assay of inhibition activity can be conducted as follows. Inhibitors may be assayed against crude or purified human skin fibroblast collagenase, or purified human gingival fibroblast collagenase using the synthetic thiol ester substrate at pH 6.5 exactly as described by Kortylewicz & Galardy, J Med Chem (1990) 33:263-273, at a collagenase concentration of 1-2 nM. The candidate inhibitors are tested for their ability to inhibit crude collagenase and gelatinase from human skin fibroblasts, crude collagenase and gelatinase from purulent human neutrophils in this assay.

Assay [2] concerns the target T2, Natural human 72kD gelatinase (Homo sapiens, UniProt P08253).
T2 sequence (P08253 110-660): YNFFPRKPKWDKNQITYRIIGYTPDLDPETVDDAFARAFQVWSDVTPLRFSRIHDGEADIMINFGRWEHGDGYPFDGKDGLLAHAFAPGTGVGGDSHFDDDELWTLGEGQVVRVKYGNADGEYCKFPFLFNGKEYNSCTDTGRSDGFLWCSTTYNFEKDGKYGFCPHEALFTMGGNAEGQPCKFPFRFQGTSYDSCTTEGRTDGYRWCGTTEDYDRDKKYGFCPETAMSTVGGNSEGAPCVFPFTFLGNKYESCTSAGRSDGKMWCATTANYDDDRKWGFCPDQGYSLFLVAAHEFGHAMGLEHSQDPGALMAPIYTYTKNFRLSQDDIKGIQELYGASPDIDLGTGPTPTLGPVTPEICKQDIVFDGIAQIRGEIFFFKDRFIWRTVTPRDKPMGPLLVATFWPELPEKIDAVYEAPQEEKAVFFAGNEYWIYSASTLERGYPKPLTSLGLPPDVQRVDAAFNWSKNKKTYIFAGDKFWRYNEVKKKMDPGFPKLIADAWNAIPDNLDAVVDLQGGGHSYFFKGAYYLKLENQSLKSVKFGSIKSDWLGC
In words: inhibition of 72kD gelatinase (Table 2). The conditions noted are these: read-out: 72kD G inhibitory activity. The class given is biochemical.
Procedure: (§6) Specifically, assay of inhibition activity can be conducted as follows. […] Assays for inhibition of human stromelysin are conducted as described by Teahan, J., et al., Biochemistry (1989) 20:8497-8501.
(§7) Assay of inhibition activity can be conducted using a fluorogenic substrate developed by Knight et al., FEBS Letters (1992) 296:263. This method uses a fluorometer to determine the rate of substrate hydrolysis in a 96 well plate format. Reaction rates are determined at several substrate concentrations, and multiple inhibitor levels. The data are analyzed by Lineweaver-Burk, Dixon and Henderson plot analyses (Enzyme Kinetics (1975) Irwin Segal (John Wiley & Sons, Inc., publishers), and as described by Henderson, Biochem J. (1972) 127:321). The substrate levels range from 10-30μM. […] Inhibitors may be assayed against purified 72 kD gelatinase, 92 kD gelatinase, neutrophil collagenase, stromelysin or other proteases as appropriate. The enzymes are activated at 37° C. with APMA (4-aminophenylmercuric acetate), and the assays are carried out at room temperature.

A further assay deals with Stromelysin (Homo sapiens, UniProt P08254). In words: inhibition of stromelysin (Table 2). The class given is biochemical. The conditions noted are these: read-out: Strom inhibitory activity.
Assay [3] deals with Recombinant neutrophil collagenase (Homo sapiens, UniProt P22894). In words: inhibition of recombinant neutrophil collagenase (Table 2). The class given is biochemical. As to conditions: read-out: NC inhibitory activity.
Procedure: as §6, §7
In assay [4] the target is T3, Human gingival fibrblast collagenase (Homo sapiens, UniProt P03956).
T3 construct: endogenous in cells; host or cells: human gingival fibroblasts
T3 sequence (P03956 100-469): T1 sequence (P03956 100-469)
In words: inhibition of human gingival fibroblast collagenase (Table 2). The class given is biochemical. The conditions noted are these: read-out: HGFC inhibitory activity.
Procedure: as §6, §7

In another assay the target is 92kD gelatinase (Homo sapiens, UniProt P14780). In words: inhibition of 92kD gelatinase (Table 2). The class given is biochemical. The conditions noted are these: read-out: 92kD G inhibitory activity.
Assay [5] concerns protease activity of chronic wound fluid. Kind of assay: Azocoll assay of protease activity in chronic wound fluid. The class given is biochemical, human. As to the method: (§1) Fluids were collected from 3 types of human wounds termed closed spontaneously healing wounds, open slowly healing wounds, and open chronic wounds. In the first category were fluids collected from the chest wall of women following mastectomy surgery. Fluids from non-infected wounds that were left open for valid surgical reasons were considered open slowly healing wounds. An occlusive dressing was placed over the wound bed, and fluids were collected after 2-6 hours of occlusion. Finally, fluids were also collected from chronic open wounds by covering the wounds with occlusive dressings. Wounds were considered to be chronic if they were not clinically infected and had been open and not healing for more than 4 weeks.
(§2) The various wound fluids were assayed for matrix metalloproteinase activity using the Azocoll assay essentially as described by Chavira, et al., Analytic Biochemistry (1984), 136:446.
(§3) The fluids were centrifuged, and the supernatants filtered using a 0.45μ sterile Gelman filter. The filtrates were stored frozen at -80° C. until tested for protease activity.
(§4) The effects of four inhibitors on the protease activity present in wound fluids were determined. The inhibitors were: compounds
Stock solutions of the four inhibitors were all prepared at a concentration of 800 μg/ml. Due to different solubility properties of the inhibitors, different techniques were utilized. […] S1209 was dissolved in 1% DMSO then dissolved in 10 mM citrate, pH 5.5, containing 0.05% methyl cellulose. 39A was dissolved in propylene glycol (to give a final concentration of 2.4%) then dissolved in 1 mM CaCl2, 50 mM Tris-Cl, pH 7.8. 21A was dissolved in propylene glycol (2.4%) methyl cellulose (0.05%) and 10 mM citrate, pH 8.
The protease substrate, Azocoll, was obtained from Sigma Chemical Corporation and it is a substrate for collagenase/gelatinase-like metalloproteinase enzymes and general proteases. Clostridium histolyticum collagenase (the crude form of the enzyme) was from Worthington Biochemicals. General chemicals including TRIS buffer, DMSO, and CaCl2 were from Sigma Chemical Corporation.
(§5) Briefly, 900 μl of the Azocoll substrate suspension in buffer ([…] in 50 mM TRIS, pH 7.8, 1 mM CaCl2) was added to 1.5 ml microcentrifuge tubes then 50 μl of inhibitor (or buffer) and 50 μl of chronic wound fluid (or collagenase standard) were added to the reaction tube. The reaction tubes were placed at 37° C. in a shaker that inverted the tubes 30 times per minute. After 24 hours of incubation, the reaction tubes were centrifuges at 10,000 X g and the absorbance of the supernatant solution was measured at 520 nm with a Milton-Roy spectrophotometer. Proteolysis of Azocoll substrate generates soluble colored fragments from the insoluble Azocoll substrate. Wound fluid samples were incubated alone or with the inhibitors. Controls included incubation of the Azocoll substrate with the assay buffer to measure spontaneous degradation of the substrate. A standard curve for digestion of the Azocoll substrate was generated by incubation of the Azocoll with crude bacterial collagenase. Protease levels were expressed as net μg of collagenase equivalent per ml of chronic wound fluid. In the figures, certain of the wound fluids are referred to by an individual name.
For these experiments, due to the different solubility properties of the inhibitors, different techniques were utilized. […] S1209 was dissolved in 1% DMSO then dissolved in 10 mM citrate, pH 5.5, containing 0.05% methyl cellulose. 39A was dissolved in propylene glycol (to give a final concentration of 2.4%) then dissolved in 1 mM CaCl2, […] Tris-Cl, pH 7.8. 21A was dissolved in propylene glycol (2.4%) methyl cellulose (0.05%) and 10 mM citrate, pH 8.

Assay [6] has as its system protease activity in open and chronic wound fluids. Kind of assay: Azocoll assay of protease activity in open and chronic wound fluids. The class given is biochemical, human. As to conditions: for inhibition of Azocoll-degrading proteases in wound fluids: FIG. 6; for effect on proteolytic activity of open and chronic wound fluids: FIG. 5. Here is the method: as §1, §2, §3, §4
These inhibitors were compared to certain other inhibitors and these were UL001 [HSCH2 CH(CH2 CH(CH3)2)CO--Phe--Ala--NH2 ] obtained from Peptides International and MP506, obtained from Elastin Products. EDTA (ethylenediamine tetraacetic acid) and PMSF (phenylmethylsulfonyl fluoride) were also studied.
as §5

Chain of Stromelysin (P08254 100-477): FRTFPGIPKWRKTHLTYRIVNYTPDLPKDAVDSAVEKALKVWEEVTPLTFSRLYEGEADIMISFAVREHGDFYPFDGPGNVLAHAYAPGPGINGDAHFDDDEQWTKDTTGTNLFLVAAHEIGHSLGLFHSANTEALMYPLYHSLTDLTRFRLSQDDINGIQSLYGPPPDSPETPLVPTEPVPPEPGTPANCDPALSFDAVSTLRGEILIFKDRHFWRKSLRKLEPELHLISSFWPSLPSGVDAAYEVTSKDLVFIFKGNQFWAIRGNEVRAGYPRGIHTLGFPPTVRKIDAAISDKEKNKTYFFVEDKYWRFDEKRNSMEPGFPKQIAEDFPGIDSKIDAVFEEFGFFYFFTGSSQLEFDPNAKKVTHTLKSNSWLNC
Chain of Recombinant neutrophil collagenase (P22894 101-467): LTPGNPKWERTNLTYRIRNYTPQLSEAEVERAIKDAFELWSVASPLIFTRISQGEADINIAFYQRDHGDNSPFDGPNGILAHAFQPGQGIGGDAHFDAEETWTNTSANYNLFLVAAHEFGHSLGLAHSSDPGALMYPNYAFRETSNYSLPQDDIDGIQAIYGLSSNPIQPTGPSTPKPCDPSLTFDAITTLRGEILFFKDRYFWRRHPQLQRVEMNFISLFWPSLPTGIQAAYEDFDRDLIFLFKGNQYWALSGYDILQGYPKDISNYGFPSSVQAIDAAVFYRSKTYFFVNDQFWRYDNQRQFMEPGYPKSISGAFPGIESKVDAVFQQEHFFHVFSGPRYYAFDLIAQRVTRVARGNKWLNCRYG
Chain of 92kD gelatinase (P14780 107-707 limits assumed): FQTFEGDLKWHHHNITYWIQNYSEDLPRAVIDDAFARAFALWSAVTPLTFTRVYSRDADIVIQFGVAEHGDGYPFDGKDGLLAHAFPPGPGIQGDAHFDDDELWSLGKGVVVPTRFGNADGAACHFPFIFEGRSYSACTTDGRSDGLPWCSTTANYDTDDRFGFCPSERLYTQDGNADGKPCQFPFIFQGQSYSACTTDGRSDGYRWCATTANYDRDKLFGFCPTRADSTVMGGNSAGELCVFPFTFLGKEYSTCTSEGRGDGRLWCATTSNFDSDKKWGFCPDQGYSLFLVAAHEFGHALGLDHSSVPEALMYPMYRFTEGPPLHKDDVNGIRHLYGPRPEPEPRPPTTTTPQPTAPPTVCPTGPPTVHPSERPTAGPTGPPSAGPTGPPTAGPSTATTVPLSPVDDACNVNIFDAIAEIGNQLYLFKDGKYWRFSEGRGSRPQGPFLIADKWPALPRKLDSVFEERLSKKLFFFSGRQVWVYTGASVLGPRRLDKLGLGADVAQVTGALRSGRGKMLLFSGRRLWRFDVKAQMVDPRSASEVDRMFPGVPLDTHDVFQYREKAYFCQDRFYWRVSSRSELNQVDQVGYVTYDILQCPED

As for `CNC(=O)[C@H](Cc1c[nH]c2ccccc12)N(C)C(=O)C(CC(=O)NO)CC(C)C` (single isomer, unassigned) [Compound 9A, N-[2-isobutyl-3-(N'-hydroxyamidocarbonyl)-propanoyl]-N-methyl-L-tryptophanmethylamide], the Ki in assay [1] was 0.5 µM; in assay [2], 0.032 µM; on Stromelysin, above 1 µM; in assay [3] it was 0.029 µM; in assay [4], 0.005 µM.

As to `CCCCCCCCCCCCNC(=O)[C@H](Cc1c[nH]c2ccccc12)NC(=O)C(CC(=O)NO)CC(C)C` (single isomer, unassigned) [Compound 19A, N-[2-isobutyl-3-(N'-hydroxyamidocarbonyl)-propanoyl]-L-tryptophan dodecylamide], the Ki in assay [1] was 0.3 µM; in assay [2] it was 0.00037 µM; at 92kD gelatinase it was 0.00129 µM; on Stromelysin it was 0.04 µM; in assay [3], 0.00062 µM.

For `CC(C)CC(CC(=O)NO)C(=O)N[C@@H](Cc1c[nH]c2ccccc12)C(=O)NCCCCCCNC(=O)OCc1ccccc1` (stereo partly drawn) [Compound 27A, N-[L-2-isobutyl-3-(N'-hydroxyamidocarbonyl)-propanoyl]-L-tryptophan(6-phenyl-methoxycarbonyl-1-aminohexyl)amide], the Ki in assay [1] amounted to 0.013 µM; in assay [2], 0.0029 µM; at Stromelysin, 0.094 µM; in assay [3], 0.021 µM; in assay [4] it was 0.0001 µM.

Take `CC(C)CC(CC(=O)NO)C(=O)N[C@@H](Cc1c[nH]c2ccccc12)C(=O)NC1CCCCC1` (stereo partly drawn) [Compound 28A, N-[L-2-Isobutyl-3-(N'-hydroxyamidocarbonyl)-propanoyl]-L-tryptophan cyclohexylamide]: the Ki was determined as 0.05 µM in assay [1]; 0.004 µM in assay [2]; 0.078 µM on Stromelysin; 0.001 µM in assay [3]; 0.0001 µM in assay [4].

Regarding `CC(C)C[C@H](CC(=O)O)C(=O)N[C@@H](Cc1c[nH]c2ccccc12)C(=O)NCCCN1CCOCC1` [Compound 48], the Ki in assay [2] was determined as 0.145 µM; at 92kD gelatinase, 0.065 µM; on Stromelysin it was 19.3 µM; in assay [3], 0.032 µM.

On to `CC(C)C[C@H](CC(=O)NO)C(=O)N[C@@H](Cc1c[nH]c2ccccc12)C(=O)NCCN1CCOCC1` [Compound 52, N-[2-Isobutyl-3-(N'-hydroxyamidocarbonyl)-propanoyl]-L-tryptophan-3(4-morpholinyl)-n-ethylamide], for which the Ki in assay [2] worked out at 0.00081 µM; on 92kD gelatinase, 0.00097 µM; at Stromelysin, 0.057 µM; in assay [3], 0.00019 µM; in assay [4], 0.0006 µM.

In the case of `CNC(=O)C(Cc1ccc(OC)cc1)NC(=O)C(CC(=O)NO)CC(C)C` (stereo not drawn) [Compound S1209], the “inhibition of protease activity of chronic wound fluid” value in assay [5] (FIG. 7, highest concentration (800 μg/ml)) is given as 70%. The “inhibition of Azocoll-degrading proteases in wound fluids” value (shortened to “inhibition … in wound fluids”) in assay [6] is recorded as “very effectively; also recorded: very effective inhibitors”.

Turning to `O=C(O)CN(CCN(CC(=O)O)CC(=O)O)CC(=O)O` [EDTA, ethylenediamine tetraacetic acid, reference compound], in assay [5] (FIG. 4), the “effective concentrations (order of magnitude)” value is “mM” and the “inhibition of protease activity of a chronic wound fluid” value is “effectively inhibited”. Besides, the “reduction of protease activity” value in assay [5] (FIG. 4, EDTA at mM concentrations) is given as “approximately 96%”. In addition, in assay [6], the “effect on proteolytic activity of open and chronic wound fluids” value is reported as “very effective inhibitors”; the “inhibition … in wound fluids” value was “very effectively”. In addition, the “reduction of proteolytic activity in open or chronic wound fluids” value in assay [6] (fluids with high levels of Azocoll-degrading protease activity) was 95%.

Consider `O=S(=O)(F)Cc1ccccc1` [PMSF, phenylmethylsulfonyl fluoride, reference compound], for which the “inhibition of protease activity of a chronic wound fluid” value in assay [5] (FIG. 4) was “not an effective inhibitor except at the highest concentration”. The “reduction of proteolytic activity” value in assay [5] (FIG. 4, 500 μM) is recorded as “approximately 65%”. Moreover, the “effect on levels of protease activity at lower concentrations” value in assay [5] (FIG. 4, PMSF 500 μM and 50 μM) is given as “slightly increase the levels of protease activity”. Also, the “effect on proteolytic activity of open and chronic wound fluids” value in assay [6] was “did not significantly reduce the proteolytic activity; also recorded: did not reduce the levels of proteolytic activity”.

Turning to `CC(C)CC(CS)C(=O)N[C@@H](Cc1ccccc1)C(=O)N[C@@H](C)C(N)=O` (stereo partly drawn) [UL001], the “inhibition … in wound fluids” value in assay [6] is listed as “very effectively”.
